Format in all cases: cell-based, rat
For data set [1], the system named is HCN cells. The experiment in a line: Cytotoxic effects on HCN cells.
Data set [2] has as its system HCN cells (adult hippocampal neural progenitor cells). Kind of data set: Neuronal and astroglial differentiation of HCN cells by TuJ1/GFAP double-immunofluorescence staining. The note with it: for Relative activity at ECmax: ECmax relative to Compound A, compound 2 (100) and DMSO (0 or no active, N/A), AP = Anti-proliferation. As to the method: Cell Culture: Neural precursor cells isolated from the hippocampus of adult female Fischer 344 rats^(1) were maintained in N2 supplemented (Invitrogen) DMEM: Ham's F12 (Omega scientific) medium containing 20 ng/mL FGF-2 (PeproTech Inc.) HCN cells were expanded and maintained in an undifferentiated state on a polyornithine/laminin-coated dish in a defined serum-free growth medium (DMEM/F12 supplemented with N2 and 20 ng/ml bFGF) in a homogeneous monolayer. Neuronal and astroglial differentiation was analyzed directly with double-immunofluorescence staining of βIII tubulin (TuJ1) as a neuronal marker and glial fibrillary acidic protein (GFAP) as an astroglial marker. A combinatorial heterocycle library of 50,000 compounds was screened using undifferentiated, early passage HCN cells plated onto polyornithine/lamin-coated 384-well plates at a density of 6,000 cells/well in complete growth medium. After overnight incubation, the medium was exchanged with bFGF-free basal medium, and 5 μM of the compounds (final concentration) were added to each well. After treatment with compound for four days, cells were fixed and stained with βIII tubulin/TUJ1 and GFAP antibodies, the morphology of positively stained cells was analyzed, and the number of cells with the desired phenotypes was counted.
(§1) Immunocytochenzistry: Cells were fixed with 4% paraformaldehyde for 30 min and washed with PBS, and then blocked for 1 hour at room temperature in PBS containing 0.3% Triton X-100 and 5% donkey serum (PBS-B). Samples were incubated in PBS-B containing dilutions (1:1500) of two primary antibodies for 24 hrs at 4° C., washed three times with PBS, and incubated w secondary antibodies conjugated to Cy3 (Jackson ImmunoResearch Laboratories, Inc.) Alexa Fluor 488 (Molecular Probe Inc.). The samples then were treated with 1 μg/mL 4′,6-diamidino-2-phenylindole (DAPI) for 30 min at room temperature, and then washed three times with PBS.
A combinatorial heterocycle library of 50,000 compounds was screened using undifferentiated, early passage HCN cells plated onto polyornithine/lamin-coated 384-well plates at a density of 6,000 cells/well in complete growth medium. After overnight incubation, the medium was exchanged with bFGF-free basal medium, and 5 μM of the compounds (final concentration) were added to each well. After treatment with compound for four days, cells were fixed and stained with βIII tubulin/TUJ1 and GFAP antibodies, the morphology of positively stained cells was analyzed, and the number of cells with the desired phenotypes was counted.

Data set [3] deals with NeuroD1 and NeuN. Kind of data set: BrdU labeling with immunocytochemistry to detect NeuroD1 and NeuN. The settings on record: HCN cells (FIG. 4). The procedure: as §1
(§2) RA). After 5 hours, the medium was changed and 10 μM of 5-bromo-2′-deoxy-uridine (BrdU) (final concentration) was added to each well. After treatment with BrdU for 2 hours, cells were fixed, washed three times with 01M Tris-buffer, and incubated in 2N HCl at 37° for 30 min. After treatment with 0.1M borate buffer (pH 8.5) for 10 min, cells were washed three times with PBS and treated with blocking buffer (PBS containing 0.3% Triton-X and 5% donkey serum) for 60 min. After overnight incubation with anti-BrdU (1:400) antibody, cells were washed with PBS and incubated with secondary antibody conjugated to Cy3 (1:1000) for 2 hours. After washing with PBS, BrdU-positive cells were counted.

The test system of data set [4] is HCN cells. The experiment in a line: BrdU proliferation assay. The settings on record: HCN cells treated 5 hours in bFGF-free N2 medium; 15, 10, 5 μM Compound A or 1, 0.5, 0.25 μM RA; BrdU 2 hours. As to the method:
BrdU proliferation assay: Cells were treated with compounds (Compound A and
as §2

Data set [5] deals with HCN cells. Kind of data set: Astroglial differentiation of HCN cells induced by LIF/BMP2/FBS. The settings on record: 50 ng/ml LIF, 50 ng/ml BMP2 and 0.5% FBS; compound A 20 μM, RA 5 μM; listed as Compound A.
The subject of data set [6] is Sox2. Kind of data set: Semi-quantitative RT-PCR of marker genes: Sox2. The note with it: HCN cells, 10 μM Compound A versus compound-free N2 medium.
Data set [7] relates to NeuroD1. The experiment in a line: Semi-quantitative RT-PCR of marker genes: NeuroD1. The settings on record: HCN cells, 10 μM Compound A versus compound-free N2 medium.
[8] abbreviates: HCN cells treated with Compound A.

“Also recorded” adds a separate entry of the source.

Turning to `CC1=C(/C=C/C(C)=C/C=C/C(C)=C/C(=O)O)C(C)(C)CCC1` [RA, retinoic acid, reference compound], the cytotoxicity entry in data set [1] (over 2 μM in growth factor (bFGF or LIF/BMP2)-free basal medium) is “significant cytotoxicity”.
With “ethyl 4-(2-phenylthiazol-4-ylamino) benzoate [Compound 1]”, the “Relative activity at ECmax” value in data set [2] was 10.
In the case of `CCOC(=O)c1ccc(N(C)c2csc(-c3ccccc3)n2)cc1` [Compound 2], the “Relative activity at ECmax” value in data set [2] was found to be 100. Besides, the “cells differentiated into neuronal cells (immunostaining with TuJ1 and characteristic neuronal morphology)” value in data set [2] (setting [8]) is on record as “more than 90%”. Further, in data set [2] (HCN cells, bFGF-free basal medium, four days), the “neuronal differentiation-inducing activity (screen and sublibrary)” value is recorded as “highest activity among the analogues tested”. The “lineage specificity: GFAP-positive (astroglial) versus neuronal cells after treatment” value in data set [2] (four days in N2 media, 10 μM Compound A or 2 μM RA (FIG. 2)) is “GFAP-positive cells were very rarely detected”. The “staining for later stage neuronal markers neurofilament-H and Map2(a+b)” value in data set [2] (seven days of treatment with 10 μM Compound A) is reported as “positive staining”. In data set [3], the “expression of neuron-specific marker genes NeuroD1 and NeuN” value is given as “induces expression of neuron-specific marker genes”. Also, the “cell proliferation (BrdU-positive cells)” value in data set [4] was “significantly slowed cell proliferation”. For the same molecule, the “inhibition of astroglial differentiation induced by LIF and BMP2” value in data set [5] is “can also inhibit astroglial differentiation; also recorded: can competitively suppress astrogliogenesis by LIF/BMP2/FBS in a dose-dependent manner”. Also, the “Sox2 (neural progenitor marker) mRNA level” value in data set [6] is recorded as “down-regulated”. Moreover, the visible cytotoxic effects result in data set [1] (setting [8]) was “without visible cytotoxic effects”. The “NeuroD1 (neuronal cell marker) mRNA level” value in data set [7] was “up-regulated”.

The values above are taken from patent US8105581B2, “Compositions and methods for inducing neuronal differentiation” (The Scripps Research Institute, priority 2005, dated 2012).
